Assay results: patent US20250011404A1, “TARGETING APOE ENHANCES T-CELL KILLING IN CANCER IMMUNOTHERAPY” (Children's National Medical Center, priority 2021, published 2025)
“Also recorded” adds a separate entry of the source.

Tests used:
Format in all cases: cell-based, mouse
[1] = system: naïve C57/BL6 splenocytes co-cultured with immunogenic B16 tumor cells; assay: IFNγ ELISA, naïve splenocytes co-cultured with Myc-inhibited immunogenic B16 tumor cells
Description: To further investigate the influence of tumor secreted apoE on immune cell function, immunogenic B16 tumor cells (B16 cells treated with Myc inhibitors (0.25 μM BET+0.25 μM JQ1 for 4 days) were irradiated at 60 Gray and co-cultured with naïve C57/BL6 splenocytes in the presence of either apoE mimetic COG133 at 0.3, 3 and 9 μM or anti-APOE blocking antibody at 1, 10 and 30 μg/ml concentrations. Prior work has shown the immunogenic effect of treating cancer cells with Myc inhibitors and irradiation. IFNγ production was quantified by ELISA at 48 h. Splenocytes produced high levels of IFNγ when co-cultured with Myc-inhibited immunogenic B16 cells as shown in FIGS. 3A-3C. Exposure of these cells to apoE mimetic COG133 repressed IFNγ production (6-fold reduction) (FIG. 3A), while the presence of Anti-APOE antibody enhanced IFNγ production (3-fold increase) (FIG. 3B). We also tested IFNγ production from vaccinated splenocytes following co-culture with treated and untreated B16 cells in the presence of COG 133. […] In addition to IFNγ, we also quantified other cytokine/chemokines using ProcartaPlex multiplex immunoassay. […]
WT and apoE^−/− mice or WT and lrp8^−/− mice, were inoculated with either WT B16 or apoE^−/− B16 cells, with anti-CTLA4 antibody on day 0. […] Readings were measured at 450 nm using the EnSpire 2300 Multilabel plate reader (Perkin Elmer, Waltham, Massachusetts, US).

[2] = system: vaccinated splenocytes from lrp8−/− mice; assay: Cytokine production of vaccinated splenocytes from lrp8−/− mice co-cultured with immunogenic B16 cells (ELISA, multiplex)
Source text: To functionally define the role of the lrp8 receptor engagement in apoE suppression, vaccinated splenocytes from lrp8^−/− mice were isolated. These cells were co-cultured with BET/JQ1 treated (Myc-suppressed) immunogenic B16 cells for 48 hr with or without exposure to the apoE mimetic COG133. […] In addition, using ProcartaPlex multiplex immunoassay, we also quantified other cytokines/chemokines produced in the reaction. […] These included effector function: IFNγ; stimulator function, IL18, GM-CSF, G-CSF; inflammatory cytokines: IL2, IL3, IL4, IL5, IL9, IL13, IL23, IL12p70; chemo attractant factors: MCP-1, MCP3, MIP-1α, CCL-5 (Rantes); and regulatory factors: IL6, IL-10 (P<0.05). […] Cell culture supernatant was collected after centrifuge at 1,200 rpm for 10 min at 4° C. The concentrations of the following immune molecules were determined using the mouse Cytokine & Chemokine 36-plex ProcartaPlex Panel, a magnetic bead-based multiplex immunoassay (Thermo Scientific) following our previous protocol(19). Briefly, cell culture supernatant samples were mixed with antibody-linked polystyrene beads on a 96-well plate and incubated at room temperature (RT) for 2 h on an orbital shaker at 500 rpm. After washing, plates were incubated with biotinylated detection antibody for 30 min at RT. Plates were then washed twice and then labeled beads were resuspended in streptavidin-PE. Each sample was measured in duplicate along with standards (8-point dilutions) and the buffer control. Plates were read using a Luminex Bio-plex 200 system (Bio-Rad Corp.) for quantitative analysis. WT and apoE^−/− mice or WT and lrp8^−/− mice, were inoculated with either WT B16 or apoE^−/− B16 cells, with anti-CTLA4 antibody on day 0. These vaccinated splenocytes (VS) were harvested on day 7 and co-cultured with either WT B16 or apoE^−/− B16 cells for 48 hr, following which IFNγ levels in media were compared with ELISA assay. […] Readings were measured at 450 nm using the EnSpire 2300 Multilabel plate reader (Perkin Elmer, Waltham, Massachusetts, US).

[3] = system: splenocytes co-cultured with Myc-inhibited B16 tumor cells; assay: ProcartaPlex multiplex immunoassay of splenocyte/B16 co-cultures
Description: To further investigate the influence of tumor secreted apoE on immune cell function, immunogenic B16 tumor cells (B16 cells treated with Myc inhibitors (0.25 μM BET+0.25 μM JQ1 for 4 days) were irradiated at 60 Gray and co-cultured with naïve C57/BL6 splenocytes in the presence of either apoE mimetic COG133 at 0.3, 3 and 9 μM or anti-APOE blocking antibody at 1, 10 and 30 μg/ml concentrations. Prior work has shown the immunogenic effect of treating cancer cells with Myc inhibitors and irradiation. IFNγ production was quantified by ELISA at 48 h. Splenocytes produced high levels of IFNγ when co-cultured with Myc-inhibited immunogenic B16 cells as shown in FIGS. 3A-3C. Exposure of these cells to apoE mimetic COG133 repressed IFNγ production (6-fold reduction) (FIG. 3A), while the presence of Anti-APOE antibody enhanced IFNγ production (3-fold increase) (FIG. 3B). We also tested IFNγ production from vaccinated splenocytes following co-culture with treated and untreated B16 cells in the presence of COG 133. To obtain vaccinated splenocytes, 10^4 WT B16 tumor cells and 100 μg/ml anti-CTLA4 antibody were administered to C57BL/6 mice on day 0, and splenocytes were collected at day 7 after tumor cell inoculation. Compared with naïve splenocytes, vaccinated splenocytes produced dramatically greater level of IFNγ, especially when they were co-cultured with Myc inhibited B16 tumor cells. […] In addition to IFNγ, we also quantified other cytokine/chemokines using ProcartaPlex multiplex immunoassay. […] Within these 14 cytokines, four of them including IFN[…], IL6, IL18 and RANTES (CCL5) were suppressed after exposure to apoE peptide mimetic COG133 in a dose dependent manner (FIG. 17).
Cell culture supernatant was collected after centrifuge at 1,200 rpm for 10 min at 4° C. The concentrations of the following immune molecules were determined using the mouse Cytokine & Chemokine 36-plex ProcartaPlex Panel, a magnetic bead-based multiplex immunoassay (Thermo Scientific) following our previous protocol(19). Briefly, cell culture supernatant samples were mixed with antibody-linked polystyrene beads on a 96-well plate and incubated at room temperature (RT) for 2 h on an orbital shaker at 500 rpm. After washing, plates were incubated with biotinylated detection antibody for 30 min at RT. Plates were then washed twice and then labeled beads were resuspended in streptavidin-PE. Each sample was measured in duplicate along with standards (8-point dilutions) and the buffer control. Plates were read using a Luminex Bio-plex 200 system (Bio-Rad Corp.) for quantitative analysis.

[4] = co-culture with Myc-inhibited B16 cells 48 hr, multiplex immunoassay (FIG. 18)

Question: How did the “splenocyte production of IFNγ in presence of COG133” value ([1]; naïve and vaccinated splenocytes + BET/JQ1 treated B16 cells (FIG. 3A)) turn out when “COG133: a fragment of apoE peptide, which competes with the apoE holoprotein for binding the LDL receptors and acts as an apoE mimetic” was run?
Answer: markedly reduced

Question: And the “IFNγ production, reduction” value ([1]; naïve splenocytes + Myc-inhibited irradiated B16 cells, COG133 at 0.3, 3 and 9 μM, ELISA at 48 h)?
Answer: 6 fold

Question: And the “detectable cytokines with pattern similar to IFNγ: inhibition in WT mice, reversed in lrp8−/− splenocytes” value ([2]; ProcartaPlex multiplex, with or without COG133, 48 hr)?
Answer: Seventeen out of 27

Question: What about the “IFNγ production from lrp8−/− vaccinated splenocytes” value ([2]; co-culture with BET/JQ1 treated B16 cells 48 hr, with COG133) of the same substance?
Answer: inhibitory effect was lacking; also recorded: suppression did not occur

Question: What about the “IL-13, IL-4, IL22, IL18, MCP-1, RANTES and Gro-α, lrp8−/− vaccinated splenocytes” value [2, 4] of the same substance?
Answer: suppressive effect is diminished

Question: What about the “IL-13, IL-4, IL22, IL18, MCP-1, RANTES and Gro-α, WT vaccinated splenocytes” value [3, 4] of the same substance?
Answer: suppression

Question: What about the “production of IFNγ, IL-6 and IL-18, naïve splenocytes” value ([3]; co-cultures with naïve splenocytes, 48 hr, multiplex ELISA (FIG. 17)) of the same substance?
Answer: suppressive effect

Question: And the “production of IFNγ, IL-6 and IL-18, vaccinated splenocytes” value ([3]; co-cultures with vaccinated splenocytes, 48 hr, multiplex ELISA (FIG. 17))?
Answer: diminished in vaccinated splenocytes is still observed

Question: And the “IFNγ, IL6, IL18 and RANTES (CCL5) production” value ([3]; splenocytes + Myc-inhibited B16 cells, multiplex immunoassay, dose dependent manner)?
Answer: suppressed
